Assay results taken from patent US20240252508A1, “Novel glucose uptake inhibitors for use in the treatment of cancer” (NOVELYEAST BV, priority 2021, published 2024).
“Also recorded” adds a separate entry of the source. Read-outs that look alike come from different tables or passages of the source.

Key:
tps1Δ cells [1] = experiment: Growth rescue of tps1Δ strain on glucose (growth curves, 2% galactose medium); format: cell-based, S. cerevisiae
Procedure, shortened: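 tps1Δ yeast pregrown in Complete Synthetic medium with 2% galactose, washed, resuspended to OD 0.1; compounds added 10 min before glucose. Growth followed as OD595 every 30 min at 30 °C in at least three technical replicates.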

yeast Hxt7 = biological target: T1, yeast Hxt7 (Saccharomyces cerevisiae, UniProt P39004); experiment: Glucose uptake by Hxt7 expressed in hxt^0 erg4Δ (EBY.VW4000) yeast; format: cell-based, S. cerevisiae
T1 construct: HA (C); expressed in transfected cells; host or cells: S. cerevisiae RE700A (hxt0 gal2Δ) in A5; EBY.VW4000 (hxt0 erg4Δ) in A7; plasmid 'pHXT7'
Text: (§1) To assess whether WBC-A could inhibit glucose transport activity of the GLUT carriers, we expressed human GLUT1^V69M and GLUT4^V85M in a hxt^0 gal2Δ (RE700A) and hxt^0 erg4Δ (EBY.VW4000) strain, respectively. These strains are both deficient in glucose uptake due to absence of all active glucose transporters. For functional GLUT expression in yeast, specific mutations had to be introduced in both sequences, whereas for GLUT4, an additional ERG4 gene deletion was required^64,65,66.
(§2) Zero-trans uptake of radioactively labeled [U-^14C]glucose, [U-^14C]fructose or [U-^14C]galactose by S. cerevisiae cells was determined in accordance with previous studies^44,66. Cells were grown on different carbon sources depending on the experiment. For measuring glucose uptake activity in the tps1Δ and tps1Δ hxtA strains (FIG. 1b,c), cells were grown on YP medium containing 3% glycerol (measurement of 10s). Typically, for compound characterization and kinetic studies in wild type and tps1Δ strains, cells were (pre)grown on Complete Synthetic medium supplemented with 2% galactose (measurement of 10s). […] The loaded filter was transferred to a scintillation vial containing 3 mL liquid scintillation cocktail (Ultima-Flo M, Perkin Elmer) and counted using the Hidex 300 SL. […]

[2] = test system: KMS-12-PE multiple myeloma cells; experiment: Steady-state glucose consumption and lactate production in KMS-12-PE cells; format: cell-based, human; conditions: 25 μM, 1 mM glucose, 8 h
Procedure: The influence of WBC compounds on the steady-state glucose consumption rate was studied in the A549 adenocarcinoma and KMS-12-PE multiple myeloma cell lines. As such, different parameters needed to be optimized depending on whether cells were adherent or in suspension. As such, A549 cells were incubated at 125,000 cells/well in a 24-well plate in 300 μL RPMI medium for 8 h. For the KMS-12-PE cell line, 100,000 cells/well were incubated in 100 μL RPMI medium in a 96-well plate for 8 h. Medium was collected, spun down and HPLC-analyzed for measuring glucose and lactate levels. Metabolite levels were corrected for cell number, which always varied little over the span of 8 h. For every condition, at least 4 technical repeats were included.

tps1Δ cells [3] = experiment: Zero-trans glucose uptake in tps1Δ yeast cells; format: cell-based, S. cerevisiae; conditions: for Ki: Dixon plot analysis
Procedure: Zero-trans uptake of radioactively labeled [U-^14C]glucose, [U-^14C]fructose or [U-^14C]galactose by S. cerevisiae cells was determined in accordance with previous studies^44,66. Cells were grown on different carbon sources depending on the experiment. For measuring glucose uptake activity in the tps1Δ and tps1Δ hxtA strains (FIG. 1b,c), cells were grown on YP medium containing 3% glycerol (measurement of 10s). Typically, for compound characterization and kinetic studies in wild type and tps1Δ strains, cells were (pre)grown on Complete Synthetic medium supplemented with 2% galactose (measurement of 10s). In the experiments on the influence of hexokinase activity on the sugar uptake rate, the measurement duration was shortened to 5s and cells were always grown on YP medium containing 3% glycerol and 2% ethanol. After harvesting, cells were washed twice with ice-cold 25 mM MES-buffer pH 6, and resuspended in their respective medium without sugar to a final concentration of 45 mg (wet weight)/mL. The amount of added tracer was estimated to give a response close to at least 1000 counts per min in order to adequately counter background noise. Cells were first preincubated for 10 min at 30° C. with the compound to acclimate the cells to the temperature and to allow adequate interaction with the compound prior to uptake. Next, hexose sugar was mixed with the cell suspension, which was then incubated for 5 or 10 s, depending on the experiment, after which the cells were rapidly filtered over a glass microfiber filter (Whatman GF/C) and washed three times with ice-cold dH2O. The loaded filter was transferred to a scintillation vial containing 3 mL liquid scintillation cocktail (Ultima-Flo M, Perkin Elmer) and counted using the Hidex 300 SL. Three blank measurements per strain were typically included to account for background signal, for which the cells were first quenched before adding the radioactive label.

hexokinase = experiment: In vitro hexokinase activity in extracts of wild type cells; format: biochemical, S. cerevisiae; conditions: 50 μM WBC-A
Procedure: In vitro hexokinase activity was determined as described previously 43, s. As such, cells were first grown to exponential phase on complete Synthetic medium supplemented with 2% galactose. The cells were harvested and washed with ice-cold 25 mM MES buffer pH 6. Subsequently, cells were resuspended in lysis buffer (50 mM HEPES pH 7, 150 mM NaCl, 2.5 mM MgCl2, 5% glycerol and 1% Triton X-100) containing protease inhibitor after which the cells were mechanically lysed. After protein level determination, total protein concentration was diluted to 0.1 mg/mL in reaction buffer (50 mM HEPES pH 7, 150 mM NaCl, 2.5 mM MgCl2, 5% glycerol). For measuring activity, reaction buffer was supplemented with 0.8 mg/mL NADP^+ and 50 μg/mL Glu6P dehydrogenase. After temperature equilibration of the plate at 30° C., the reaction was started by adding both ATP and glucose to the reaction buffer. OD340 was measured using the Synergy H1 Hybrid reader and hexokinase activity was determined based on the linear increase of absorbance in the first 10-20s.

yeast Hxt7 carrier = biological target: T2, yeast Hxt7 carrier (Saccharomyces cerevisiae, UniProt P39004); experiment: Glucose uptake by Hxt7 expressed in hxt^0 gal2Δ (RE700A) yeast; format: cell-based, S. cerevisiae
T2 construct: HA (C); expressed in transfected cells; host or cells: S. cerevisiae RE700A (hxt0 gal2Δ) in A5; EBY.VW4000 (hxt0 erg4Δ) in A7; plasmid 'pHXT7'
Text: as §1, §2

[4] = Warbicin toxicity and tolerability in mice; format: in vivo, NMRI-nu mice
Procedure: Warbicin in vivo toxicity and tolerability was examined by subjecting NMRI-nu mice to daily intraperitoneal injection of either WBC-A, WBC-15C, WBC-4C or WBC-11C. Compounds were dosed at either 5 mg/kg, 10 mg/kg or 20 mg/kg over a period of 20 days. Three mice were used per condition. To evaluate toxicity, change in body weight was registered daily. As a humane endpoint, mice that lost more than 20% of their original body weight were prematurely sacrificed. An optimal dissolve strategy was developed to administer WBC compounds by intraperitoneal injection. Due to their considerable hydrophobicity, compounds were dissolved in a sterilized 1×PBS, 5% DMSO and 5% Tween-80 solution. For WBC-A, -15C and -4C, this gives an initial clear solution that gradually changes over time into a homogenous suspension which can still be administered in a reproducible way. For WBC-11C it immediately results in a homogenous suspension.

T2 sequence (P39004 whole entry): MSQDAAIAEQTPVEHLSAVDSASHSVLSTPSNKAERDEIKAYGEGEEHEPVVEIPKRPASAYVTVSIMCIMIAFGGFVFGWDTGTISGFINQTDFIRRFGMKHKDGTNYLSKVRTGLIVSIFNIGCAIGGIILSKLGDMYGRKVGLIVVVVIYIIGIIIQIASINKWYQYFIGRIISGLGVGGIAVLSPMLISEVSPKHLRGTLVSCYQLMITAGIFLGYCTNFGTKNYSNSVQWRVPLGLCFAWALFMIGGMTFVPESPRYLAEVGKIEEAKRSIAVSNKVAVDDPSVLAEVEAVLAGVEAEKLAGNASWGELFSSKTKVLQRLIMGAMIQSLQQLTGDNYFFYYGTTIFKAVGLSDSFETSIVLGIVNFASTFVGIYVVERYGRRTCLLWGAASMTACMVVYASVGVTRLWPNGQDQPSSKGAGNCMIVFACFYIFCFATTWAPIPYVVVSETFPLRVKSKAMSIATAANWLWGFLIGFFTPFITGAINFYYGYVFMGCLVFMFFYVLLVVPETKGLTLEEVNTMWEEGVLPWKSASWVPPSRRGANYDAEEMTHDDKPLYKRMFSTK
T1 sequence (P39004 whole entry): as above

Structure (SMILES): Cc1nc(Sc2nnc3n2CCCCC3)c2c(-c3cccs3)csc2n1 [WBC-A]
- Rescue of tps1Δ growth on galactose in the presence of 5 mM glucose (tps1Δ cells [1]; 100 μM WBC-A, 5 mM glucose): rescued growth
- Rescue of tps1Δ growth in the presence of 7.5 mM glucose (tps1Δ cells [1]; 100 μM WBC-A, 7.5 mM glucose): not able to restore growth
- Growth of tps1Δ cells on galactose in the absence of glucose (tps1Δ cells [1]; 100 μM WBC-A, 2% galactose): significant growth delay
- Minimal rescue concentration for growth of tps1Δ cells on 2.5 mM glucose (tps1Δ cells [1]; 2.5 mM glucose): 25 µM
- IC50 (yeast Hxt7): 12.9 µM
- Glucose consumption and lactate production in KMS-12-PE cells [2]: did not cause inhibition
- Ki (tps1Δ cells [3]): 8.35 µM
- Ki (tps1Δ cells [3]; printed K′, read-out: K′i, glucose uptake, tps1Δ cells): 35.4 µM
- Type of inhibition of glucose uptake, tps1Δ cells (tps1Δ cells [3]; Lineweaver-Burk plot analysis): mixed type
- Effect on in vitro hexokinase activity (hexokinase): No significant effect
- IC50 (yeast Hxt7 carrier): 51 µM
- Inhibition of glucose uptake by Hxt7 at 25 μM (yeast Hxt7 carrier; 25 μM, 2.5 mM glucose, hxt^0 gal2Δ strain): inhibited
- Other abnormalities at autopsy ([4]; daily i.p. 5, 10, 20 mg/kg, 20 days): No other abnormalities
- Loss in body weight over 20 days ([4]; daily i.p. 5, 10 and 20 mg/kg, nude mice): no significant loss in body weight; also recorded: No significant difference
- AST/ALT ratio vs vehicle ([4]; sera after 20 days, 5, 10, 20 mg/kg i.p.): No significant difference
- Blood glucose level vs vehicle ([4]; sera post mortem after 20 days, 5, 10, 20 mg/kg i.p.): No significant difference
